Data as given in article PMC9329436, “Optimization of the 4-anilinoquin(az)oline scaffold as epidermal growth factor receptor (EGFR) inhibitors for chordoma utilizing a toxicology profiling assay platform” (Scientific Reports, 2022).
Like-named read-outs stand apart in the source and are kept apart here.

Key:
Type in all cases: biochemical
[1] = target: T1, 320 wild-type protein kinases (Homo sapiens, UniProt Q8IWQ3); conditions: singlicate
T1 sequence (Q8IWQ3 1-736): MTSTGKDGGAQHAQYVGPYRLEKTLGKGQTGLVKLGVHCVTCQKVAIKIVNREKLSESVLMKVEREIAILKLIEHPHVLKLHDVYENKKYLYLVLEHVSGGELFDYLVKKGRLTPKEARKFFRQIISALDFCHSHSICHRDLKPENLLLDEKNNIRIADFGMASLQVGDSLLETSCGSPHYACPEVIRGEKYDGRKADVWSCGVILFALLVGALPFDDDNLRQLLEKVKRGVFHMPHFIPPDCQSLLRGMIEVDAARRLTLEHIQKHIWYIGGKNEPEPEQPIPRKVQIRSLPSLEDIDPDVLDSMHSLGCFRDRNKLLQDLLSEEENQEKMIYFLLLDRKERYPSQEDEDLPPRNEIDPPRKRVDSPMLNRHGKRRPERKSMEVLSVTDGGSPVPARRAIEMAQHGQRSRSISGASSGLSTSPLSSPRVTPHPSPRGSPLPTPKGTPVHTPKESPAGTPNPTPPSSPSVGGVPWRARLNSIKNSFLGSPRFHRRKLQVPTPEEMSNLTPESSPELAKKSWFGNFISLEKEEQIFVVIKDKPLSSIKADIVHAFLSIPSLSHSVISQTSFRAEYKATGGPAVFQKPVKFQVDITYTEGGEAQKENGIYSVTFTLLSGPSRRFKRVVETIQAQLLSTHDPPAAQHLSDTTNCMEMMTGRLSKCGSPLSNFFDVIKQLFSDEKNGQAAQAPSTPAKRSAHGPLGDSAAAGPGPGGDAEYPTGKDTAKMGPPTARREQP
Source text: (§1) Table S4. Profiling of two compounds at two concentrations against 320 wild-type protein kinases; singlicate measurement; Residual activities (% of control).

[2] = target: 320 wild-type protein kinases (Homo sapiens, UniProt Q16584); conditions: singlicate
Sequence of 320 wild-type protein kinases (Homo sapiens, UniProt Q16584) (Q16584 whole entry): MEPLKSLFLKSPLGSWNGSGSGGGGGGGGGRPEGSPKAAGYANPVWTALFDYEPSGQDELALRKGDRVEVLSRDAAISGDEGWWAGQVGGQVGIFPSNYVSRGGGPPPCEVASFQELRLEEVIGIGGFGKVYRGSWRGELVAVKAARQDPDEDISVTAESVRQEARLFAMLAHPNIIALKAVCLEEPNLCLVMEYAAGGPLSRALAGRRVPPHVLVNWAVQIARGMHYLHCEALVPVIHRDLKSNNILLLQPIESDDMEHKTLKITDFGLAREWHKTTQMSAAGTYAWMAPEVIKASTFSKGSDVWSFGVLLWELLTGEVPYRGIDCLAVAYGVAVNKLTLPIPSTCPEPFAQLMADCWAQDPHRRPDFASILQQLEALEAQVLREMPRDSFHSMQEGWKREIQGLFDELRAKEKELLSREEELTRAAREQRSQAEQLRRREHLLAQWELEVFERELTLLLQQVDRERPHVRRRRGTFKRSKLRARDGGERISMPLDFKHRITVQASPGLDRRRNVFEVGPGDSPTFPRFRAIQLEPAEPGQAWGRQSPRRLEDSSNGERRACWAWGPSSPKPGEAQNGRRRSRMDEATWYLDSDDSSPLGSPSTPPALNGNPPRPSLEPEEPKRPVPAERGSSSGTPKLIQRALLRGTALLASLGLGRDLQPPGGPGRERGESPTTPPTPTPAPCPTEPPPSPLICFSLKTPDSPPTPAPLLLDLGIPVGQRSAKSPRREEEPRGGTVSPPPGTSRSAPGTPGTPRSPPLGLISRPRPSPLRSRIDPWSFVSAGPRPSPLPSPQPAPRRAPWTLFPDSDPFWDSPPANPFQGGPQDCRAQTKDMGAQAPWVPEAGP
Source text: as §1

[3] = target: 320 wild-type protein kinases (Homo sapiens, UniProt P28482); conditions: singlicate
Sequence of 320 wild-type protein kinases (Homo sapiens, UniProt P28482) (P28482 whole entry): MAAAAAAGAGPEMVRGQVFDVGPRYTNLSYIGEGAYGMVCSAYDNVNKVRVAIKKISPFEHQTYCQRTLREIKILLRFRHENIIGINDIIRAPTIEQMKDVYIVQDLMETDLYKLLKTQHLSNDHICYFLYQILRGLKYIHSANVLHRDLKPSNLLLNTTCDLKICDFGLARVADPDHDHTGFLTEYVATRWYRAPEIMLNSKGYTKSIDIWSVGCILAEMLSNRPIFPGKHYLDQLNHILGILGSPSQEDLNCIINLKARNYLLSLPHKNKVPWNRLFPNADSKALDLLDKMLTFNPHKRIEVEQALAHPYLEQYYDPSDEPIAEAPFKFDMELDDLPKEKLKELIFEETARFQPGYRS
Source text: as §1

[4] = target: 320 wild-type protein kinases (Homo sapiens, UniProt P27448); conditions: singlicate
Sequence of 320 wild-type protein kinases (Homo sapiens, UniProt P27448) (P27448 whole entry): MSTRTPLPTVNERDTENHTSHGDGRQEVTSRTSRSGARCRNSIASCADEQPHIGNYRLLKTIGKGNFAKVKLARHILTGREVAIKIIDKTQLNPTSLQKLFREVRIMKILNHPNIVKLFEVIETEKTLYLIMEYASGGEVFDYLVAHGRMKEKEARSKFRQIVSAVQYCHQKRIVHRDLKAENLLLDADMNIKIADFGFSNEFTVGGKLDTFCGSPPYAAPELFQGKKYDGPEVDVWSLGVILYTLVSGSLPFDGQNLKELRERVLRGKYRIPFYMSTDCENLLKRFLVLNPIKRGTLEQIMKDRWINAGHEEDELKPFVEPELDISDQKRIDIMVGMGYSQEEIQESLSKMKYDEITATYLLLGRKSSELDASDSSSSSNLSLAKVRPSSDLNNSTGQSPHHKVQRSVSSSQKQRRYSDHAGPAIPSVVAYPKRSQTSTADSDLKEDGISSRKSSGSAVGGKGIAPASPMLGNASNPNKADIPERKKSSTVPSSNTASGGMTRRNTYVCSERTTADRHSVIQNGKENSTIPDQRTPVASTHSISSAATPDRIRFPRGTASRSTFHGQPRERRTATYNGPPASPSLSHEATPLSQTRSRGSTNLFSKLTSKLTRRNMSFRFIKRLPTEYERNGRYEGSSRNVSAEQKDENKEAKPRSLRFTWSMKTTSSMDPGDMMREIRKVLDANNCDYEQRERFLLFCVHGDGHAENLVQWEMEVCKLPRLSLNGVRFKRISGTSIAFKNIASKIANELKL
Source text: as §1

[5] = target: 320 wild-type protein kinases (Homo sapiens, UniProt P06213); conditions: INS-R, singlicate
Sequence of 320 wild-type protein kinases (Homo sapiens, UniProt P06213) (P06213 28-1382): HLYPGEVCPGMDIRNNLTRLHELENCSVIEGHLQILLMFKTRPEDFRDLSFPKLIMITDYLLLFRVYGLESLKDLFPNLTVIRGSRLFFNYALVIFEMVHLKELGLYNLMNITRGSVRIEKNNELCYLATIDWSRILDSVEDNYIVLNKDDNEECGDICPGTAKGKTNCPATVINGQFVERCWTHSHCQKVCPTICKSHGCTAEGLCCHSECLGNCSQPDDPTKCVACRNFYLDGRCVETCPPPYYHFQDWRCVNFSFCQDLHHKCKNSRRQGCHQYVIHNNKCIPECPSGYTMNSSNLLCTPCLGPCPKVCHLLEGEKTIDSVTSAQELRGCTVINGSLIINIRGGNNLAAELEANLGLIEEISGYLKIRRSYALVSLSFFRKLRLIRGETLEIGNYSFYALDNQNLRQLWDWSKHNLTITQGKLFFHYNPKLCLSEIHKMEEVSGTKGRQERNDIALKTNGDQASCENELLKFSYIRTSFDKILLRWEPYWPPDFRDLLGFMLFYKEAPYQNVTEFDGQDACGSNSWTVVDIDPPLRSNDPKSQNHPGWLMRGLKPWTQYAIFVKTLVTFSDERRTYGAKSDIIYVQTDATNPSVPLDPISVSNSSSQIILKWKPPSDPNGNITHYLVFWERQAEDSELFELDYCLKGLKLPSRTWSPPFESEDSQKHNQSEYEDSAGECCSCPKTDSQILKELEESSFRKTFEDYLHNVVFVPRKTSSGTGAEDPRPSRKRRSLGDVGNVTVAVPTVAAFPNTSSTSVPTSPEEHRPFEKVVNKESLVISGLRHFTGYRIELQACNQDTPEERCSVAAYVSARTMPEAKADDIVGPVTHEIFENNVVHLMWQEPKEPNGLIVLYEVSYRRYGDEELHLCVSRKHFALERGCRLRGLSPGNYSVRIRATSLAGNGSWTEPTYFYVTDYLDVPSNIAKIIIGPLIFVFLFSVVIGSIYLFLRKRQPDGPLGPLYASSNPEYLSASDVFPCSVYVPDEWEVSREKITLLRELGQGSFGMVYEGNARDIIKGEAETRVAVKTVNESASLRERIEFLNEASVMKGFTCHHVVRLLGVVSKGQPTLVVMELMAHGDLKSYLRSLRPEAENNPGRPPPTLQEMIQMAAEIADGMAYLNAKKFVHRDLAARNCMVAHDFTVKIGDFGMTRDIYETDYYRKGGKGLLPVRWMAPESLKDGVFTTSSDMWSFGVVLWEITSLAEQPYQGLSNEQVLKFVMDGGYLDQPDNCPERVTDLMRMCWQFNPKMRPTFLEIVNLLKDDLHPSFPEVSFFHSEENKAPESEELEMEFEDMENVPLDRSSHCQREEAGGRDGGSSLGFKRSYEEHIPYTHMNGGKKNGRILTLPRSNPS
Source text: as §1

[6] = target: T2, 320 wild-type protein kinases (Homo sapiens, UniProt Q12851); conditions: singlicate
T2 sequence (Q12851 1-820): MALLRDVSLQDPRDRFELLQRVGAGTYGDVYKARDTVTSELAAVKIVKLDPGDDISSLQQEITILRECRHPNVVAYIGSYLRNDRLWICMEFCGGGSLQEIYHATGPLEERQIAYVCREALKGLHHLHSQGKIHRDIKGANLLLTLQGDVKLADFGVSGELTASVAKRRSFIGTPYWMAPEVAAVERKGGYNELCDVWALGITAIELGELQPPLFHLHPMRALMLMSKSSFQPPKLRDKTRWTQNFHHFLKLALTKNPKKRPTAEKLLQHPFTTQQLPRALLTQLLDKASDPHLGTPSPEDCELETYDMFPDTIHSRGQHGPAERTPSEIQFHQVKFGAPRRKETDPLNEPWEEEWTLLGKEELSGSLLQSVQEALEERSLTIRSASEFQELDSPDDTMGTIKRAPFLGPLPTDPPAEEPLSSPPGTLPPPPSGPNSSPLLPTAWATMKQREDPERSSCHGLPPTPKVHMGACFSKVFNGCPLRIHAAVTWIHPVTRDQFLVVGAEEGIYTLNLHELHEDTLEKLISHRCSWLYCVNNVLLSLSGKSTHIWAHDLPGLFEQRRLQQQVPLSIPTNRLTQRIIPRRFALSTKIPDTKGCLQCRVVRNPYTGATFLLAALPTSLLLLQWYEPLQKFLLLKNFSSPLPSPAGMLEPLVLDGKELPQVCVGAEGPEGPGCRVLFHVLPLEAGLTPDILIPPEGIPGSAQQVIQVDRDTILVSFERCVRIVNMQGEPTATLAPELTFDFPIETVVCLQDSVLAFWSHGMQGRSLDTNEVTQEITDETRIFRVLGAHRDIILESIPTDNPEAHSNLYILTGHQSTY
Source text: as §1

[7] = target: T3, 320 wild-type protein kinases (Homo sapiens, UniProt Q9H2K8); conditions: kinase TAOK3, singlicate
T3 sequence (Q9H2K8 1-898): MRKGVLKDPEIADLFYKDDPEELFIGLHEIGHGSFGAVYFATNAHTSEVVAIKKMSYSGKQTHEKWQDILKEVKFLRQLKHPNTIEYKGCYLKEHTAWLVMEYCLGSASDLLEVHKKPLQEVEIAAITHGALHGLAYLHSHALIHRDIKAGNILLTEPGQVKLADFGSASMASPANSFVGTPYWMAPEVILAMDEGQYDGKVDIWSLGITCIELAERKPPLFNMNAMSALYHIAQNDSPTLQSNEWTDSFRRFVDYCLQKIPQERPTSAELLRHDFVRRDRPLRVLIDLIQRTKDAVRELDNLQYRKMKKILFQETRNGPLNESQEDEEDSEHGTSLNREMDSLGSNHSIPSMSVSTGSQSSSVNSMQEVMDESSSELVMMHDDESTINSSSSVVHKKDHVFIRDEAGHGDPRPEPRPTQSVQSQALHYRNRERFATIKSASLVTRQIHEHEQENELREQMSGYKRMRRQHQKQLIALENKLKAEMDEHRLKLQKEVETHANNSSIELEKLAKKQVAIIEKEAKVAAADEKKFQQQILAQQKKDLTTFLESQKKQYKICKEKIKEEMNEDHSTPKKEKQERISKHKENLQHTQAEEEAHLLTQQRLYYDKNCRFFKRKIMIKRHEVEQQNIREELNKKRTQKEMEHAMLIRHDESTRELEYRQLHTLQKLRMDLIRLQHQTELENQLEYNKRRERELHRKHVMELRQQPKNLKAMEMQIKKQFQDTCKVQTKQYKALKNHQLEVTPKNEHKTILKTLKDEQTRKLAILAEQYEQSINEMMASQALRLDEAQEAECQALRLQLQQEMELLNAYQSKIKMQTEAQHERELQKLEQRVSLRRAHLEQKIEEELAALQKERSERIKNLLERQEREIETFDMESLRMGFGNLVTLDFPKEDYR
Source text: as §1

SMILES	Residual activity ([1]; BRSK2, 1.0E-06 M)	Residual activity ([1]; BRSK2, 1.0E-07 M)	Residual activity ([2]; MAP3K11, 1.0E-06 M)	Residual activity ([2]; MAP3K11, 1.0E-07 M)	Residual activity ([3]; ERK2, 1.0E-06 M)	Residual activity ([3]; ERK2, 1.0E-07 M)	Residual activity ([4]; MARK3, 1.0E-06 M)	Residual activity ([4]; MARK3, 1.0E-07 M)	Residual activity ([5]; 1.0E-06 M)	Residual activity ([5]; 1.0E-07 M)	Residual activity ([6]; MAP4K2, 1.0E-06 M)	Residual activity ([6]; MAP4K2, 1.0E-07 M)	Residual activity, TAOK3 ([7]; assay conc. 1.0E-06 M)	Residual activity, TAOK3 ([7]; assay conc. 1.0E-07 M)
C#Cc1cc(Nc2ncnc3cc(I)ccc23)ccc1Cl [Compound 41]	100 % of control	98 % of control	73 % of control	75 % of control	86 % of control	90 % of control	95 % of control	97 % of control	96 % of control	105 % of control	94 % of control	99 % of control	93 % of control	87 % of control
C#Cc1cc(Nc2ncnc3cc(OC)c(OC)cc23)ccc1Cl [Compound 45]	101 % of control	106 % of control	59 % of control	79 % of control	87 % of control	94 % of control	100 % of control	96 % of control	82 % of control	97 % of control	113 % of control	105 % of control	106 % of control	92 % of control
